Assay results: patent US20220409601A1, “COMBINATION CANNABINOID-NAD+ PRECURSOR FORMULATION FOR TREATMENT OF INFLAMMATION AND METHODS RELATED THERETO” (priority 2019, published 2022)
Where two headings read alike, the source gives them in different places.

What was measured:
chondrocytes (C-28/I2) = assay: toxicity screen, maximum tolerable concentration in chondrocytes
Description: (§1) A clonal derivative of ATCC-certified normal chondrocytes was used for a study to determine cytokine expression. The parent line was originally derived from costal cartilage of adolescent […]. The cell line used is C-28/I2 accession number CVCL 0187. The cells were immortalized via retroviral vector-mediated SV40 Large T antigen expression. Cells were confirmed negative for mycoplasma contamination and genotyped by STR analysis to verify cell identity. This cell line is widely used as a model for studying normal and pathological cartilage repair mechanisms and inflammation.
(§2) The cells were cultured at 37° C. with 5% CO2, DMEM/F12 media supplemented with 10% heat-inactivated fetal bovine serum. Antimicrobials were not added to the media. Cells were maintained between 40 and 80% confluency to avoid terminal differentiation. Cells used for the experiments had been passaged no more than ten times prior to each experiment.
A series of pilot studies were performed to design the final full-scale experiment. First, a toxicity screen for each test compound was performed to establishment maximum tolerable concentrations in this model system. Second, assays were run to establish the optimal means of inducing a pro-inflammatory state in the cell culture system. Third, conditions were tested to set the most favorable dilution scheme in order to maintain samples within the linear range of detection for each analyte. To establish the test concentrations for each test compound, chondrocytes were treated with a serial dilution of each compound, for 24 and 48 hours under serum free conditions. Oleocanthal or CBD were tested at two-fold dilutions down from 50 micromolar (μM).

GM-CSF = settings: IL1β 10 ng/ml, 24 hours, no serum
Description: as §1, §2

[1] = 24 hours post-treatment, serum free, chondrocytes, microscopy (vacuolation, blebbing, reduced cell count), unit not given
[2] = High level (CBD 6.00 μM, niacin 900 μM), FIG. 1, 2C
[3] = Moderate level (CBD 2.00 μM, niacin 300 μM), FIG. 1, 2B

## C=C(C)[C@@H]1CCC(C)=C[C@H]1c1c(O)cc(CCCCC)cc1O [CBD, cannabidiol]
Chondrocytes (C-28/I2); [1]
  maximum tolerable concentration: 604
GM-CSF; [2]
  effect on GM-CSF expression: This effect was not seen
GM-CSF; [3]
  effect on GM-CSF expression: This effect was not seen

## O=C(O)c1cccnc1 [niacin, nicotinic acid]
Chondrocytes (C-28/I2); human, 24 h
  maximum tolerable concentration: 1 mM
GM-CSF; [2]
  effect on GM-CSF expression: This effect was not seen
GM-CSF; [3]
  effect on GM-CSF expression: This effect was not seen

## C/C=C(/C=O)[C@@H](CC=O)CC(=O)OCCc1ccc(O)cc1 [oleocanthal]
Chondrocytes (C-28/I2); [1]
  maximum tolerable concentration: 604
